Laboratory results: patent US11932626B2, “2-pyrimidone analogs as potent antiviral agents against Alphaviruses” (priority 2020, dated 2024)
pEC50: −log10 of the molar value.

How the values were obtained:
[1] = system: CHIKV linked NanoLuc luciferase reporter; experiment: microbe, parasite or virus in culture; assay type: cell-based; settings: Chikungunya virus, read-out: CHIKV EC50
[2] = in vitro; settings: human
[3] = system: VEEV (TC-83); experiment: microbe, parasite or virus in culture; assay type: cell-based; settings: Venezuelan equine encephalitis virus, read-out: VEEV EC50
[4] = system: CHIKV; experiment: CHIKV virus titer reduction (VTR) assay in NHDF cells; assay type: cell-based; settings: Chikungunya virus; for log reduction at 10 µM: CHIKV titer reduction at 10 μM, normal human dermal fibroblasts (NHDF) cells; for EC90: effective concentration of 90% inhibition of virus in a VTR assay, NHDF cells
[5] = system: VEEV; experiment: microbe, parasite or virus in culture; assay type: cell-based; settings: Venezuelan equine encephalitis virus, NHDF; for EC90: read-out: VEEV EC90; for log reduction at 10 µM: read-out: VEEV VTR

SMILES | pEC50 [1] | CC50 [2] [µM] | pEC50 [3] | log reduction at 10 µM [4] | EC90 [4] [µM] | EC90 [5] [µM] | log reduction at 10 µM [5]
O=C(COc1cc(Cl)[nH]c(=O)n1)NC12CC3CC(CC(C3)C1)C2 [compound 18, N-(Adamantan-1-Yl)-2-((6-Chloro-2-Oxo-1,2-Dihydropyrimidin-4-Yl)Oxy)Acetamide] | 6.09 | > 40 | 4.79 | 5.19 | 0.51 | 5.65 | 1
O=C(COc1cc(N2CCOCC2)[nH]c(=O)n1)NC12CC3CC(CC(C3)C1)C2 [compound 19, N-(Adamantan-1-Yl)-2-((6-Morpholino-2-Oxo-1,2-Dihydropyrimidin-4-Yl)Oxy)Acetamide] | 5.62 | > 40 | 4.48 | 4.84 | 0.74 | 3.2 | 4.4
O=C(COc1cc(N2CC(F)(F)C2)[nH]c(=O)n1)NC12CC3CC(CC(C3)C1)C2 [compound 20, N-(Adamantan-1-Yl)-2-((6-(3,3-Difluoroazetidin-1-Yl)-2-Oxo-1,2-Dihydropyrimidin-4-Yl)Oxy)Acetamide] | > 7.11 | > 40 | 5.70 | 3.49 | 0.067 | 0.4 | 6.63
O=C(COc1nc(=O)[nH]c2c1CCC2)NC12CC3CC(CC(C3)C1)C2 [compound 21, N-(Adamantan-1-Yl)-2-((2-Oxo-2,5,6,7-Tetrahydro-1H-Cyclopenta[D]Pyrimidin-4-Yl)Oxy)Acetamide] | 6.28 | > 40 | 4.80 | 4.26 | 0.3 | 1 | 5.2
O=C(COc1nc(=O)[nH]c2c1CCCC2)NC12CC3CC(CC(C3)C1)C2 [compound 22, N-(Adamantan-1-Yl)-2-((2-Oxo-1,2,5,6,7,8-Hexahydroquinazolin-4-Yl)Oxy)Acetamide] | 6.19 | > 40 | 5.06 | 4.94 | 0.045 | 1.44 | 7.02
O=C(COc1nc(=O)[nH]c2c1COCC2)NC12CC3CC(CC(C3)C1)C2 [compound 23, N-(Adamantan-1-Yl)-2-((2-Oxo-1,5,7,8-Tetrahydro-2H-Pyrano[4,3-D]Pyrimidin-4-Yl)Oxy)Acetamide] | 5.95 | > 40 | 4.96 | 5.85 | 0.2 | 2.1 | 6.4
O=C(COc1nc(=O)[nH]c2ccccc12)NC12CC3CC(CC(C3)C1)C2 [compound 24, N-(Adamantan-1-Yl)-2-((2-Oxo-1,2-Dihydroquinazolin-4-Yl)Oxy)Acetamide] | 6.33 | > 40 | < 4.40 | 6.28 | 0.3 | 3.2 | 1
Cc1c[nH]c(=O)nc1OCC(=O)NC12CC3CC(CC(C3)C1)C2 [compound 25, N-(Adamantan-1-Yl)-2-((5-Methyl-2-Oxo-1,2-Dihydropyrimidin-4-Yl)Oxy)Acetamide] | 5.71 | > 40 | 4.79 | 4.91 | 2.1 | 2.83 | 3.04
O=C(COc1nc(=O)[nH]cc1F)NC12CC3CC(CC(C3)C1)C2 [compound 26, N-(ADAMANTAN-1-YL)-2-((5-FLUORO-2-OXO-1,2-DIHYDROPYRIMIDIN-4-YL)OXY)ACETAMIDE] | 5.50 | > 40 | < 4.40 | 5.19 | 0.3 | 0.1 | 3.22
O=C(COc1nc(=O)[nH]cc1F)NC1C2CC3CC(C2)CC1C3 (stereo not drawn) [compound 27, N-(Adamantan-2-Yl)-2-((5-Fluoro-2-Oxo-1,2-Dihydropyrimidin-4-Yl)Oxy)Acetamide] | 4.49 | > 40 | < 4.40 | 1.31 | 8.75 | 10 | 0
O=C(COc1nc(=O)[nH]cc1Cl)NC12CC3CC(CC(C3)C1)C2 [compound 28, N-(Adamantan-1-Yl)-2-((5-Chloro-2-Oxo-1,2-Dihydropyrimidin-4-Yl)Oxy)Acetamide] | 4.48 | > 40 | < 4.40 | 1.6 | 10 | > 10 | 0.71
Cc1[nH]c(=O)nc(OCC(=O)NC23CC4CC(CC(C4)C2)C3)c1C [compound 29, N-(Adamantan-1-Yl)-2-((5,6-Dimethyl-2-Oxo-1,2-Dihydropyrimidin-4-Yl)Oxy)Acetamide] | 5.64 | > 40 | < 4.40 | 4.24 | 0.4 | 2.97 | 2.91
O=C(COc1nc(=O)[nH]c(N2C3CCC2COC3)c1F)NC12CC3CC(CC(C3)C1)C2 [compound 34, 2-((6-(3-Oxa-8-Azabicyclo[3.2.1]Octan-8-Yl)-5-Fluoro-2-Oxo-1,2-Dihydropyrimidin-4-Yl)Oxy)-N-(Adamantan-1-Yl)Acetamide] | 5.99 | > 40 | 4.65 | 6.13 | 0.19 | 5 | 1.97
O=C(COc1nc(=O)[nH]c(N2CC(F)(F)C2)c1F)NC12CC3CC(CC(C3)C1)C2 [compound 35, N-(Adamantan-1-Yl)-2-((6-(3,3-Difluoroazetidin-1-Yl)-5-Fluoro-2-Oxo-1,2-Dihydropyrimidin-4-Yl)Oxy)Acetamide] | 6.15 | > 40 | 5.28 | 4 | 0.051 | 1.5 | 3.35
COc1cc(OCC(=O)NC23CC4CC(CC(C4)C2)C3)nc(=O)[nH]1 [compound 36, N-(adamantan-1-yl)-2-((6-methoxy-2-oxo-1,2-dihydropyrimidin-4-yl)oxy)acetamide] | 5.94 | > 40 | < 4.40 | 4.56 | 0.23 | > 10 | 0.63
O=C(COc1cc(Oc2ccc(F)cc2)[nH]c(=O)n1)NC12CC3CC(CC(C3)C1)C2 [compound 37, N-(adamantan-1-yl)-2-((6-(4-fluorophenoxy)-2-oxo-1,2-dihydropyrimidin-4-yl)oxy)acetamide] | < 4.40 | > 40 | < 4.40 | 0 | > 10 | > 10 | 0.8
Cc1[nH]c(=O)nc(SCC(=O)NC23CC4CC(CC(C4)C2)C3)c1C(=O)O [compound 38, 4-((2-((Adamantan-1-Yl)Amino)-2-Oxoethyl)Thio)-6-Methyl-2-Oxo-1,2-Dihydropyrimidine-5-Carboxylic Acid] | < 4.40 | > 40 | < 4.40 | 1.19 |  |  | 0.23
